Patent US20100267774A1, “P38 MAP KINASE INHIBITORS” (CHROMA THERAPEUTICS LTD., priority 2007, published 2010)

biological target: T1, p38 MAP Kinase a (Homo sapiens, UniProt Q16539); experiment: p38 MAP Kinase activity, radiometric filter-binding assay (Upstate); format: biochemical; settings: IC50 range; read-out: Inhibitor activity versus p38 MAPKa
T1 construct: purchased Upstate (Dundee UK)
Experimental: The ability of compounds to inhibit p38 MAP a Kinase activity was measured in an assay performed by Upstate (Dundee UK). In a final reaction volume of 25 μL, p38 MAP Kinase a (5-10 mU) is incubated with 25 mM Tris pH 7.5, 0.002 mMEGTA, 0.33 mg/mL myelin basic protein, 10 mM MgAcetate and [g-33P-ATP] (specific activity approx. 500 cpm/pmol, concentration as required). The reaction is initiated by the addition of the MgATP mix. After incubation for 40 minutes at room temperature, the reaction is stopped by the addition of 5 μL of a 3% phosphoric acid solution. 10 μL of the reaction is then spotted onto a P30 filtermat and washed three times for 5 minutes in 75 mM phosphoric acid and once in methanol prior to drying and scintillation counting.
Duplicate data points are generated from a 1/3 log dilution series of a stock solution in DMSO. Nine dilutions steps are made from a top concentration of 10 μM, and a ‘no compound’ blank is included. The standard radiometric filter-binding assay is performed at an ATP concentration at, or close to, the Km. Data from scintillation counts are collected and subjected to free-fit analysis by Prism software. From the curve generated, the concentration giving 50% inhibition is determined and reported.

T1 sequence (Q16539 whole entry): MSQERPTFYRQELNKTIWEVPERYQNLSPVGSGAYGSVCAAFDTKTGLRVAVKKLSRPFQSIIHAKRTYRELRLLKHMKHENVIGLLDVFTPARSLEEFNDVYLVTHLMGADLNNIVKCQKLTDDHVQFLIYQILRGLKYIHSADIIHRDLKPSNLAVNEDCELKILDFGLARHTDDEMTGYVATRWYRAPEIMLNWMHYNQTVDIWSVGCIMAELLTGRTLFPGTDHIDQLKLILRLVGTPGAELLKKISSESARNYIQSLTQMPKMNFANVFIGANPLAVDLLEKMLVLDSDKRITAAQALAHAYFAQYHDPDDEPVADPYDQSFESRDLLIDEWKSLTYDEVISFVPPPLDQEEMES

| Structure (SMILES) | IC50 |
| --- | --- |
| CC[C@H](C)[C@H](NCCc1ccc(-n2c(N)c(C(=O)c3ccc(F)cc3F)ccc2=O)cc1)C(=O)OC(C)(C)C [Example 19, tert-butyl N-[2-(4-{6-amino-5-[(2,4-difluorophenyl)carbonyl]-2-oxopyridin-1(2H)-yl}phenyl)ethyl]-L-isoleucinate] | 100 to 1000 nM |
| CC(C)(C)[C@H](NCCc1ccc(-n2c(N)c(C(=O)c3ccc(F)cc3F)ccc2=O)cc1)C(=O)O [Example 54, N-[2-(4-{6-amino-5-[(2,4-difluorophenyl)carbonyl]-2-oxopyridin-1(2H)-yl}phenyl)ethyl]-3-methyl-L-valine] | 100 to 1000 nM |
| CC(C)C[C@H](NCCc1ccc(-n2c(N)c(C(=O)c3ccc(F)cc3F)ccc2=O)cc1)C(=O)O[C@H]1C[C@@H](C)CC[C@@H]1C(C)C [Example 14, (1S,2R,5S)-2-Isopropyl-5-methylcyclohexyl N-(2-{4-[6-amino-5-(2,4-difluorobenzoyl)-2-oxopyridin-1(2H)-yl]phenyl}ethyl)-L-leucinate] | > 1000 nM |
| CC(C)(C)OC(=O)[C@@H](NCCc1ccc(-n2c(N)c(C(=O)c3ccc(F)cc3F)ccc2=O)cc1)C1CCCCC1 [Example 4, tert-butyl (2S)-{[2-(4-{6-amino-5-[(2,4-difluorophenyl)carbonyl]-2-oxopyridin-1(2H)-yl}phenyl)ethyl]amino}(cyclohexyl)ethanoate] | > 1000 nM |
| CC(C)(C)OC(=O)[C@H](Cc1ccccc1)NCCc1ccc(-n2c(N)c(C(=O)c3ccc(F)cc3F)ccc2=O)cc1 [Example 23, tert-butyl N-[2-(4-{6-amino-5-[(2,4-difluorophenyl)carbonyl]-2-oxopyridin-1(2H)-yl}phenyl)ethyl]-L-phenylalaninate] | 100 to 1000 nM |
| CC(C)C[C@H](NCCc1ccc(-n2c(N)c(C(=O)c3ccc(F)cc3F)ccc2=O)s1)C(=O)OC(C)(C)C [Example 50, tbutyl N-(2-{5-[6-amino-5-(2,4-difluorobenzoyl)-2-oxopyridin-1(2H)-yl]-2-thienyl}ethyl)-L-leucinate] | 100 to 1000 nM |
| CC(C)(C)OC[C@H](NCCc1ccc(-n2c(N)c(C(=O)c3ccc(F)cc3F)ccc2=O)cc1)C(=O)O [Example 56, N-[2-(4-{6-amino-5-[(2,4-difluorophenyl)carbonyl]-2-oxopyridin-1(2H)-yl}phenyl)ethyl]-O-tert-butyl-L-serine] | < 100 nM |
| C[C@@H](OC(C)(C)C)[C@H](NCCc1ccc(-n2c(N)c(C(=O)c3ccc(F)cc3F)ccc2=O)cc1)C(=O)OC(C)(C)C [Example 16, tert-butyl N-[2-(4-{6-amino-5-[(2,4-difluorophenyl)carbonyl]-2-oxopyridin-1(2H)-yl}phenyl)ethyl]-O-tert-butyl-L-threoninate] | 100 to 1000 nM |
| CC(C)C[C@@H](NCCc1ccc(-n2c(N)c(C(=O)c3ccc(F)cc3F)ccc2=O)cc1)C(=O)OC(C)(C)C [Example 10, tert-butyl N-[2-(4-{6-amino-5-[(2,4-difluorophenyl)carbonyl]-2-oxopyridin-1(2H)-yl}phenyl)ethyl]-D-leucinate] | 100 to 1000 nM |
| Nc1c(C(=O)c2ccc(F)cc2F)ccc(=O)n1-c1ccc(CCN[C@H](C(=O)O)C2CCCCC2)cc1 [Example 52, (2S)-{[2-(4-{6-amino-5-[(2,4-difluorophenyl)carbonyl]-2-oxopyridin-1(2H)-yl}phenyl)ethyl]amino}(cyclohexyl)ethanoic acid] | 100 to 1000 nM |

Other lines, results leading:

| IC50 | Structure (SMILES) |
| --- | --- |
| < 100 nM | Nc1c(C(=O)c2ccc(F)cc2F)ccc(=O)n1-c1c(F)cc(CCN[C@H](C(=O)O)c2ccccc2)cc1F [Example 66, (2S)-[(2-{4-[6-amino-5-(2,4-difluorobenzoyl)-2-oxopyridin-1(2H)-yl]-3,5-difluorophenyl}ethyl)amino](phenyl)acetic acid] |
| 100 to 1000 nM | CC(C)(C)OC(=O)[C@@H](NCCc1ccc(-n2c(N)c(C(=O)c3ccc(F)cc3F)ccc2=O)cc1)c1ccccc1 [Example 2, tert-butyl (2S)-{[2-(4-{6-amino-5-[(2,4-difluorophenyl)carbonyl]-2-oxopyridin-1(2H)-yl}phenyl)ethyl]amino}(phenyl)ethanoate] |
| < 100 nM | Nc1c(C(=O)c2ccc(F)cc2F)ccc(=O)n1-c1ccc(CCN[C@@H](CO)C(=O)O)cc1 [Example 57, N-[2-(4-{6-amino-5-[(2,4-difluorophenyl)carbonyl]-2-oxopyridin-1(2H)-yl}phenyl)ethyl]-L-serine] |
| < 100 nM | C[C@@H](O)[C@H](NCCc1ccc(-n2c(N)c(C(=O)c3ccc(F)cc3F)ccc2=O)cc1)C(=O)O [Example 58, N-[2-(4-{6-amino-5-[(2,4-difluorophenyl)carbonyl]-2-oxopyridin-1(2H)-yl}phenyl)ethyl]-L-threonine] |
| < 100 nM | CC(C)C[C@H](NCCc1cc(F)c(-n2c(N)c(C(=O)c3ccc(F)cc3)ccc2=O)c(F)c1)C(=O)O [Example 63, N-(2-{4-[6-amino-5-(4-fluorobenzoyl)-2-oxopyridin-1(2H)-yl]-3,5-difluorophenyl}ethyl)-L-leucine] |
| < 100 nM | C[C@H](NCCc1ccc(-n2c(N)c(C(=O)c3ccc(F)cc3F)ccc2=O)cc1)C(=O)O [Example 60, N-[2-(4-{6-amino-5-[(2,4-difluorophenyl)carbonyl]-2-oxopyridin-1(2H)-yl}phenyl)ethyl]-L-alanine] |
| < 100 nM | Nc1c(C(=O)c2ccc(F)cc2)ccc(=O)n1-c1c(F)cc(CCN[C@H](C(=O)O)c2ccccc2)cc1F [Example 62, (2S)-[(2-{4-[6-amino-5-(4-fluorobenzoyl)-2-oxopyridin-1(2H)-yl]-3,5-difluorophenyl}ethyl)amino](phenyl)acetic acid] |
| < 100 nM | Nc1c(C(=O)c2ccc(F)cc2F)ccc(=O)n1-c1ccc(CCN[C@@H](Cc2ccccc2)C(=O)O)cc1 [Example 61, N-[2-(4-{6-amino-5-[(2,4-difluorophenyl)carbonyl]-2-oxopyridin-1(2H)-yl}phenyl)ethyl]-L-phenylalanine] |
| < 100 nM | CC(C)(C)OC[C@H](NCCc1cc(F)c(-n2c(N)c(C(=O)c3ccc(F)cc3)ccc2=O)c(F)c1)C(=O)O [Example 65, N-(2-{4-[6-amino-5-(4-fluorobenzoyl)-2-oxopyridin-1(2H)-yl]-3,5-difluorophenyl}ethyl)-O-tert-butyl-L-serine] |
| < 100 nM | CC(C)C[C@H](NCCc1cc(F)c(-n2c(N)c(C(=O)c3ccc(F)cc3F)ccc2=O)c(F)c1)C(=O)O [Example 67, N-(2-{4-[6-amino-5-(2,4-difluorobenzoyl)-2-oxopyridin-1(2H)-yl]-3,5-difluorophenyl}ethyl)-L-leucine] |
| 100 to 1000 nM | CC(C)(C)OC[C@H](NCCc1cc(F)c(-n2c(N)c(C(=O)c3ccc(F)cc3)ccc2=O)c(F)c1)C(=O)OC(C)(C)C [Example 32, tert-butyl N-(2-{4-[6-amino-5-(4-fluorobenzoyl)-2-oxopyridin-1(2H)-yl]-3,5-difluorophenyl}ethyl)-O-tert-butyl-L-serinate] |
| 100 to 1000 nM | Nc1c(C(=O)c2ccc(F)cc2F)ccc(=O)n1-c1ccc(CCN[C@H](C(=O)O)c2ccccc2)cc1 [Example 51, (2S)-[(2-{4-[6-amino-5-(2,4-difluorobenzoyl)-2-oxopyridin-1(2H)yl]-phenyl}ethyl)amino](phenyl)acetic acid] |
| < 100 nM | CC(C)(C)OC[C@H](NCCc1cc(F)c(-n2c(N)c(C(=O)c3ccc(F)cc3F)ccc2=O)c(F)c1)C(=O)O [Example 69, N-(2-{4-[6-amino-5-(2,4-difluorobenzoyl)-2-oxopyridin-1(2H)-yl]-3,5-difluorophenyl}ethyl)-O-tert-butyl-L-serine] |
